Measurements taken from patent publication US7767817B2, “Water soluble boronic acid fluorescent reporter compounds and methods of use thereof” (priority 2003, dated 2010).
Read-outs that look alike come from different tables or passages of the source.

Legend:
[1] = Fluorescence binding study with tagatose
Procedure: (§1) For a typical sugar-BTBA fluorescent measurement, a 1.0×10^−5 M stock solution of BTBA in 0.10 M phosphate buffer at pH 7.4 was made as solution A. […] Solution B was titrated into solution A in order to make mixtures with a constant concentration of BTBA and a range of concentrations of the sugar. Each mixture was allowed to stand for at least 10 min, then 3.0 mL of the mixture was transferred into a cuvette for fluorescence measurement.
(§2) The association constants (Ka) were determined according to the method III in Valeur's publication (J. Phys. Chem. 1988, 92, 6233).

[2] = Fluorescence binding study with sorbitol
Procedure: as §1, §2

[3] = Fluorescence binding study with fructose
Procedure: as §1, §2

[4] = Fluorescence intensity pH profile (apparent pKa); assay type: physicochemical
Description: Since the fluorescence intensity increase upon binding with a sugar seems to be a general phenomenon, the fluorescence change mechanism of compound 5 at pH 7.4 was investigated. For this purpose, the fluorescence pH profiles of both compound 5 alone and compound 5 in the presence of fructose (0.5 M) were studied. The fluorescence intensity of 5 at 334 nm in the absence of sugars decreased upon changing the pH from 3 to 12 (FIG. 3). An apparent pKa of 7.0 was observed, which is assigned to the boronic acid moiety. […] It is well-known that the binding of a diol to boronic acid often lowers the pKa of the boron species) (Springsteen, G.; Wang, B. Tetrahedron 2002, 58, 5291-5300). Therefore, the pKa, which drops from 7.0 to 4.0, can also be reasonably assigned to boron. […] It seems that the fluorescence intensity change of compound 5 is also due to diol's perturbation as that of 8-quinolineboronic acid.
To examine the relationship between the fluorescence intensity changes and the boron ionization states, the pH profile of the fluorescence intensity in the absence and presence of fructose and glucose at a fixed concentration (50 mM) was also studied (FIG. 6). […] It is worth mentioning that the pKa of the protonated dimethyl amino group of 1 is […] the emission wavelength of 1 with the protonated dimethyl amino group at low pH is about 238 nm. Therefore, the fluorescence intensity of 1 at 445 nm was not affected by the protonated dimethyl amino group. The fluorescence intensity changes correspond to the boronic acid pKa (9.4) and therefore hybridization changes, which was responsible for the fluorescence intensity changes observed.
Since the fluorescence intensity increase upon binding with a sugar seems to be a general phenomenon, next the conditions under which optimal fluorescence intensity changes are observed upon addition of a sugar was investigated. For this purpose, the fluorescence pH profiles of both compound 6 alone and in the presence of fructose (0.5 M) were studied. The fluorescence intensity of 6 in the absence of sugars increased by 17-fold upon changing the pH from 3 to 12 (FIG. 10). […] Furthermore, one would expect the pKa values of the other two ionizable groups, the carboxylic acid and the quinolinium groups, to be less than 7. Therefore, assigning the pKa at 7.9 to the boronic acid moiety is the most reasonable option. […] It is well-known that the binding of a diol to boronic acid often lowers the pKa of the boron species. […] Upon addition of fructose, the pKa of the boron drops to about 5.2, which ensures that most of the boron species are in the anionic tetrahedral state at physiological pH.
Since the fluorescence intensity increase upon binding with a sugar seems to be a general phenomenon, the use of 5-QBA functions as a fluorescent probe for diols was investigated. The fluorescence pH profiles of both 5-QBA alone and 5-QBA in the presence of D-fructose (0.5 M) were investigated. […] In order to assign each pKa, the ^11B NMR spectra of 5-QBA and its ester in a mixed deuterated methanol-water (1:1) solvent at different pH were obtained. Methanol was used so that the concentration of 5-QBA can be increased to 57 mM so as to allow for a meaningful NMR determination within a reasonable period of time.
To understand the structural features associated with the fluorescence intensity changes, we studied the pH profiles of the fluorescence intensity in the absence (FIG. 18) and presence of fructose and glucose at a fixed concentration (50 mM). […] The fluorescence intensity at 513 nm increased very quickly when pH increased from 1.78 to 7.04 (thin lines in FIG. 18), and then decreased in the pH range of 7.04-10.54 (thick lines in FIG. 18).

[5] = Fluorescence binding study with galactose
Procedure: as §1, §2

[6] = Stability noted at isolation; assay type: physicochemical; conditions: after TFA deprotection, no further purification
Procedure: (7). To a solution of 6 (0.2501 g, 0.79 mmol) in DCM (20 mL) was added TFA (5 mL). The solution was stirred for 1 h, and then concentrated in vacuum to give a yellow oil.

[7] = Fluorescence binding study with glucose
Procedure: as §1, §2

[8] = Fluorescence quantum yield; assay type: physicochemical
Procedure: The effect of various carbohydrates on the fluorescent properties of compound 1 was determined in phosphate buffer at pH 7.4. The emission spectral change of 1 with fructose at different concentrations in 0.1 M aqueous phosphate buffer (pH 7.4) is shown in FIG. 4. A 41-fold emission intensity increase is observed in presence of 50 mM fructose. To the best of our knowledge, such a large emission intensity increase has never been reported for boronic acid-based saccharide sensors involving the ICT mechanism. The quantum yields of 1 in the absence (φF=0.010) and in the presence of 50 mM fructose (φF=0.42) in 0.1 M phosphate buffer (pH 7.4) were obtained using 8-quinoline boronic acid (φF=0.58 in 12 M H2SO4) as a reference compound.
For example, addition of fructose (50 mM) to the solution of 7 induced a 36-fold fluorescence intensity increase at 433 nm and a 0.55-fold fluorescence intensity decrease at 513 nm (FIG. 14). […] To the best of our knowledge, such large emission intensity changes at two wavelengths have never been reported for boronic acid-based saccharide sensors. The quantum yields (φF) of 7 were determined as 0.07 at 513 nm in 0.1 M phosphate buffer (pH 7.4) in the absence of a sugar and 0.23 at 433 nm in the presence of 50 mM of fructose, using 8-quinoline boronic acid (φF=0.58 in 12 M H2SO4) as a reference compound.

[9] = 0.1 M phosphate buffer pH 7.4, 1:1 complex assumed
[10] = tagatose 0.05 M, pH 7.4, λex 300 nm
[11] = fructose 0.05 M, pH 7.4, λex 300 nm
[12] = galactose 0.50 M, pH 7.4, λex 300 nm
[13] = glucose 1.0 M, pH 7.4, λex 300 nm

## CN(C)c1cccc2c(B(O)O)cccc12 [Compound 7, 5-(Dimethylamino)-naphthalene-1-boronic acid]
[1]; [9]
  Association constant (Ka) with tagatose: 229 ± 3 M⁻¹
[1]; [10]
  fluorescence intensity change ΔI/I0 at 433 nm: 37 (0.05)
  fluorescence intensity change ΔI/I0 at 513 nm: −0.55 (0.05)
[1]; tagatose, physiological pH
  fluorescence intensity increase at 433 nm: about 36 fold
[2]; [9]
  Association constant (Ka) with sorbitol: 337 ± 5 M⁻¹
[2]; sorbitol 0.05 M, pH 7.4, λex 300 nm
  fluorescence intensity change ΔI/I0 at 513 nm: −0.48 (0.05)
[2]; sorbitol 0.20 M, pH 7.4, λex 300 nm
  fluorescence intensity change ΔI/I0 at 433 nm: 42 (0.20)
[2]; sorbitol 200 mM, physiological pH
  fluorescence intensity increase at 433 nm: 42 fold
[3]; 50 mM fructose versus no sugar
  change of the ratio I433/I513: 84 fold
[3]; [9]
  Association constant (Ka) with fructose: 311 ± 4 M⁻¹
[3]; before addition of a sugar, pH 7.4
  emission intensity ratio at 433 and 513 nm (I433/I513): 0.11
[3]; [11]
  fluorescence intensity change ΔI/I0 at 433 nm: 36 (0.05)
  fluorescence intensity change ΔI/I0 at 513 nm: −0.61 (0.05)
[3]; fructose 50 mM, phosphate buffer pH 7.4
  fluorescence intensity decrease at 513 nm: 0.55 fold
[3]; upon addition of 0.1 mM fructose
  emission intensity ratio at 433 and 513 nm (I433/I513): 0.23
[4]; 0.1 M aqueous phosphate buffer with 50 mM glucose, presence of glucose, intensity at 335 nm, read-out: first apparent pKa (aniline group)
  pKa: 5.1
[4]; 0.1 M aqueous phosphate buffer, compound alone, intensity at 335 nm, read-out: first apparent pKa (aniline group)
  pKa: 5.1
[4]; 0.1 M phosphate buffer, absence of sugar, 0.1 M phosphate buffer, read-out: apparent pKa assigned to the boronic acid moiety
  pKa: ~9
[5]; [9]
  Association constant (Ka) with galactose: 23.0 ± 0.2 M⁻¹
[5]; [12]
  fluorescence intensity change ΔI/I0 at 433 nm: 36 (0.50)
  fluorescence intensity change ΔI/I0 at 513 nm: −0.56 (0.50)
[5]; galactose, physiological pH
  fluorescence intensity increase at 433 nm: about 36 fold
[6]
  stability: not stable in neutral
[7]; [9]
  Association constant (Ka) with glucose: 3.6 ± 0.1 M⁻¹
[7]; [13]
  fluorescence intensity change ΔI/I0 at 433 nm: 23 (1.0)
  fluorescence intensity change ΔI/I0 at 513 nm: −0.54 (1.0)
[7]; glucose 1 M, physiological pH
  maximum fluorescence intensity increase at 433 nm: 23 fold
other
  melting point: 95 to 96 °C
[8]; absence of a sugar, 0.1 M phosphate buffer pH 7.4
  quantum yield φF at 513 nm: 0.07
[8]; presence of 50 mM fructose
  quantum yield φF at 433 nm: 0.23
